Source: ChEMBL document CHEMBL1201862, “PubChem BioAssay data set” (2004)
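The compound was tested at five concentrations on cells cultured in 96-well plates, with a 48-hour exposure period. Abbreviation: GI50, concentration required for 50% inhibition of growth.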 The source made the active and inactive calls. No stated cut-off is given here; in the data, active = GI50 up to about 1.1 µM and inactive = higher.

How the values were obtained:
Test in all cases: growth of human tumour cells (NCI), 48 h
RXF 631 = test system: RXF 631
DLD-1 = test system: DLD-1
HOP-18 = test system: HOP-18
DMS-114 = test system: DMS-114
M19-MEL = test system: M19-MEL
SNB-78 = test system: SNB-78
XF498 = test system: XF498
LXFL 529 = test system: LXFL 529
BT-549 = test system: BT-549

SMILES	GI50 (RXF 631)	GI50 (DLD-1)	GI50 (HOP-18)	GI50 (DMS-114)	GI50 (M19-MEL)	GI50 (SNB-78)	GI50 (XF498)	GI50 (LXFL 529)	GI50 (BT-549)
CC(C)(C)c1cc(C2c3cc4c(cc3OC(O)(CO)C2C(=O)O)OCO4)cc(C(C)(C)C)c1O.CC(C)(C)c1cc(C2c3cc4c(cc3OC3(O)COC(=O)C23)OCO4)cc(C(C)(C)C)c1O (stereo unspecified)	13.1 µM (inactive)	11.7 µM (inactive)	7.78 µM (inactive)	8.34 µM (inactive)	13.8 µM (inactive)				
C/C(=N\NC(N)=S)c1cc(C)c(C)cc1C	57.7 µM (inactive)	53.3 µM (inactive)	62.8 µM (inactive)	21 µM (inactive)	25.9 µM (inactive)	> 100 µM (inactive)	23 µM (inactive)	27.7 µM (inactive)	
Cc1ccccc1NC(=O)c1ccc([N+](=O)[O-])cc1		> 100 µM (inactive)	> 100 µM (inactive)	74 µM (inactive)	> 100 µM (inactive)	> 100 µM (inactive)	> 100 µM (inactive)	> 100 µM (inactive)	
C/C(=N\N)C(CN1CCCCC1)C(c1ccccc1)c1c(O)c2ccccc2oc1=O (stereo unspecified)	> 100 µM (inactive)	> 100 µM (inactive)		> 100 µM (inactive)	> 100 µM (inactive)	> 100 µM (inactive)	> 100 µM (inactive)	> 100 µM (inactive)	> 100 µM (inactive)
O=C1C(c2ccccc2)=C(O)c2cccc3cccc1c23			33.6 µM (inactive)	> 100 µM (inactive)	> 100 µM (inactive)	> 100 µM (inactive)	> 100 µM (inactive)	> 100 µM (inactive)	
CC1(CO)C(O)CCC2(C)C1C(O)CC1CC3CC12CCC3(O)CO (stereo unspecified)		> 225 µM (inactive)	> 225 µM (inactive)	> 225 µM (inactive)	> 153 µM (inactive)	> 225 µM (inactive)	29.6 µM (inactive)		
C=C1CCCC2[C@](C)(CC3=C(O)C(=O)C=C(OC)C3=O)[C@@H](C)CC[C@]12C (stereo partly specified)	9.62 µM (inactive)	7.18 µM (inactive)	1.7 µM (inactive)	1.99 µM (inactive)	1.81 µM (inactive)		16.7 µM (inactive)	6.04 µM (inactive)	
[N-]=[N+]=NC1(Cc2ccccc2)C(=O)Nc2ccccc2C1=O (stereo unspecified)		> 100 µM (inactive)	> 100 µM (inactive)	> 100 µM (inactive)	> 100 µM (inactive)	52.8 µM (inactive)	> 100 µM (inactive)	> 100 µM (inactive)	
C=C1C2CC(OC(C)=O)C3(C)C(c4ccoc4)OC(=O)[C@@H](O)[C@]13OC1C[C@H](OC(C)=O)C(C)(C)[C@H](CC(=O)OC)[C@]12C (stereo partly specified)	> 100 µM (inactive)		> 100 µM (inactive)	> 100 µM (inactive)	> 100 µM (inactive)	> 100 µM (inactive)		> 100 µM (inactive)	
CC#CC#C/C=C1\C=CC2(OC=CC2OC(C)=O)O1 (stereo unspecified)	14.5 µM (inactive)	16.5 µM (inactive)		18.2 µM (inactive)		10.4 µM (inactive)	21.3 µM (inactive)	16.3 µM (inactive)	34.7 µM (inactive)
COc1cc(Nc2nc3cc(C(F)(F)F)ccc3nc2C)cc(OC)c1OC		7.1 µM (inactive)	< 0.01 µM (active)	11.2 µM (inactive)		11.1 µM (inactive)	2.3 µM (inactive)	9.91 µM (inactive)	
O=C(O)Cc1ccccc1CCc1ccccc1Cl		> 100 µM (inactive)	50.1 µM (inactive)		95.5 µM (inactive)	> 100 µM (inactive)	> 100 µM (inactive)	> 100 µM (inactive)	
CC[C@@]1(OC(=O)C(N)CCC(=O)O)C(=O)OCc2c1cc1n(c2=O)Cc2cc3ccccc3nc2-1 (stereo partly specified)		1.48 µM (inactive)	0.217 µM (active)	0.0493 µM (active)	0.189 µM (active)	1.82 µM (inactive)	0.197 µM (active)	1.38 µM (inactive)	0.733 µM (active)
CCCCCNC(=O)CCCCCCCCCCCNC(=O)CCCCCCCCCCN1C=CC(=CC=C2C=CC(=O)C=C2)C=C1	> 100 µM (inactive)	> 100 µM (inactive)		12.6 µM (inactive)	34.4 µM (inactive)	15.3 µM (inactive)	10.3 µM (inactive)	5.86 µM (inactive)	
COc1cc(CCc2ccc(N)cc2)cc(OC)c1OC	> 58.1 µM (inactive)	> 100 µM (inactive)	> 71 µM (inactive)	34.3 µM (inactive)	55.8 µM (inactive)	39.1 µM (inactive)	64.6 µM (inactive)	59 µM (inactive)	
N#C/C(=C\c1ccc(O)c(O)c1)C(N)=O	56 µM (inactive)	48.2 µM (inactive)		22.7 µM (inactive)	78.7 µM (inactive)	> 100 µM (inactive)		40.7 µM (inactive)	
O=[N+]([O-])c1ccc(CNC2=NNS(=O)(=O)c3ccccc32)cc1	> 100 µM (inactive)	> 100 µM (inactive)		> 100 µM (inactive)	> 100 µM (inactive)	> 100 µM (inactive)	> 100 µM (inactive)	36.1 µM (inactive)	
O=c1c2ccccc2c(=O)c2c1c1[nH]c3ccccc3c1c1c(=O)c3ccccc3c(=O)c21	> 100 µM (inactive)	> 100 µM (inactive)	> 100 µM (inactive)	> 100 µM (inactive)	> 100 µM (inactive)	> 100 µM (inactive)	> 100 µM (inactive)		
Cc1oc2c(C)c3oc(=O)cc(C)c3cc2c1CN	29.1 µM (inactive)	43.3 µM (inactive)	> 100 µM (inactive)	41.2 µM (inactive)	31 µM (inactive)	53.5 µM (inactive)	20.7 µM (inactive)	37.5 µM (inactive)	
O=C(Nc1ccc([N+](=O)[O-])cc1C(=O)O)c1ccc([N+](=O)[O-])cc1	21.1 µM (inactive)	35.4 µM (inactive)		5.97 µM (inactive)	61 µM (inactive)		23.3 µM (inactive)	24.4 µM (inactive)	
